Results reported in patent US8790653B2, “Peptide inhibitors for mediating stress responses” (Yeda Research and Development Co. Ltd., priority 2004, dated 2014).
Where no end group is shown, it is not given here. [ ]: non-standard residue; d: D form.

Key:
[1] = Ethanol toxic stress in primary hepatocyte cultures (trypan blue exclusion); assay type: cell-based; details: primary hepatocyte cultures
Method: (§1) To learn whether Stressin peptide may protect from toxic stress, primary hepatocyte cultures were incubated with or without ethanol at a concentration of 0.6%, and with 50 μM Stressin-1 or without peptide. After 48 hours, the numbers of dead and alive cells were determined by trypan blue exclusion (Table 3).

[2] = test system: primary hepatocyte cultures; experiment: as above; assay type: cell-based; details: with 0.6% ethanol; 50 μM peptide; 48 hours
Method: as §1

L12 cells with p53 = experiment: Hyperthermia-induced cell death in L12 cells with active p53 (trypan blue); assay type: cell-based; details: 2 hours at 42° C., peptide 100 μg/ml
Method: The selected candidate peptides were tested for their ability to interfere with the p53-mediated cellular stress response by testing their capacity to inhibit the response to hyperthermia of the L12 cell line (Wolf, 1984), which lacks endogenous p53 activity and had been stably transfected with the p53 gene or a control vector. In these cells, p53 activity induces growth arrest and cell survival rather than apoptosis in response to hyperthermia (Nitta, 1997).
The amount of cell death was assessed by staining the cells with the vital dye trypan blue (Sigma) and counting the ratio of dead/live cells per visual field with a light microscope.
incubation for 2 hours at 42° C. induced death of all cells that lacked p53 and, in contrast, transient growth arrest and survival of about 80% of the cells with active p53. Four peptides, designated Stressin-1 to −4 (for STress RESponse Specific peptide INhibitor), were identified that at concentrations of 100 μg/ml inhibited p53-mediated growth arrest after hyperthermia and induced death of almost all cells with active p53, which is the response of L12 cells that lack p53 activity (Table 1); the peptide sequences are shown in Table 2.

L12 cells = experiment: Cisplatin-induced p53-mediated cell death of L12 cells (DNA content, propidium iodide, FACS); assay type: cell-based; details: 50 μM Cisplatin, 48 hours
Method: L12 cells were treated for 48 hours with 50 μM of the DNA-damaging agent Cisplatin and p53-mediated cell death was determined by measuring the DNA content of cells stained with propidium iodide (FIG. 1). Cells incubated in the absence of peptide responded to Cisplatin treatment with p53-mediated cell death.

BALB/c mice = experiment: Whole body γ-irradiation of BALB/c mice (radiation disease); assay type: in vivo; details: 6.5 Gy, 500 μg/mouse intraperitoneally one hour after irradiation
From the text: To test whether Stressin peptide may protect an organism from death by excessive p53 activation and tissue failure by subjecting BALB/c mice to whole body […] (6.5 Gy). A retro-inverso peptide was used to determine whether prolonged in vivo half-life would give an advantage (see Example 6); retro-inverso peptides are resistant to proteases and consist of D-amino acids in reversed order, resulting in an altered peptide backbone but unchanged orientation of the side chains (Van Regenmortel, 1998).
BALB/c mice were subjected to whole body γ-irradiation (6.5 Gy). One hour after irradiation, the mice received intraperitoneally either Stressin-1 (n=7; SEQ ID NO:1) or a modified, retro-inverso Stressin-1 peptide (n=7; SEQ ID NO:5), both at a concentration of 500 μg/mouse, or a sham injection with saline (n=6). The retro-inverso peptide was used to determine whether prolonged in vivo-half-life would give an advantage.

In the case of LPPLPYP [Stressin-1, LPPLPYP], the viability at 48 h, 50 µM [1] is reported as 100% and the Survival of hepatocytes [2] is reported as 20%.

In the case of DLSTDALHYRTA [Stressin-2], the “Incidence of cell death induced by hyperthermia” value (shortened to “Incidence of cell death induced”) (L12 cells with p53) is reported as 90% and the “cells rescued from p53-mediated cell death” value (L12 cells) is reported as 25%.

In the case of HPTNQQSLWRWP [Stressin-3], the “Incidence of cell death induced” value (L12 cells with p53) is reported as 80%.

In the case of SSLSVDYPTRYP [Stressin-4], the “Incidence of cell death induced” value (L12 cells with p53) is reported as 80%.

For “PYPLPPL ([dP][dY][dP][dL][dP][dP][dL]; also: retro-inverso) [modified Stressin-1 peptide, retro-inverso Stressin-1 peptide, D-amino acids in reversed order]”, the mice dead (BALB/c mice; after 17 days) was 29% and the “mice recovered from radiation disease” value (BALB/c mice; after 40 days) was 57%.
